Counter-ions that a name gives are not always drawn. Like-named read-outs stand apart in the source and are kept apart here.
What was measured:
[1] = tested on: insulin-resistant fa/fa rats; experiment: Delayed OGTT in insulin-resistant fa/fa rats; format: in vivo, rat; settings: 3 mg/kg 16 h before OGTT
Protocol: Male Zucker Fatty (fa/fa) rats (Ico-Zucker-fa/fa (Orl)) were obtained from Iffa (France). Animals were fed ad libitum with a standard pelleted diet (Diet No. 3438, Provimi Kliba, Switzerland) and had free access to water. Animals were housed in groups with a 12 h/12 h light/dark cycle (lights out between 6 p.m. and 6 a.m.). The rats were used for the experiments between 7 and 12 weeks of age.
fa/fa rats (n=6 per group) were treated like the mice in Example 3, delayed OGTT. 1-[(3-cyano-pyridin-2-yl)methyl]-3-methyl-7-(2-butyn-1-yl)-8-[3-(R)-amino-piperidin-1-yl]-xanthine was dosed at 3 mg/kg 16 hours before the OGTT.
GLP-1 was measured using a commercially available GLP-1 (active) ELISA Kit (Catalog# EGLP-35K, Linco Research Inc., St. Charles/Mo., USA). Insulin was measured using a commercially available Rat Insulin ELISA Kit (Catalog#90060, Crystal Chem. Inc., Downers Grove/IL, USA).

DPP IV = molecular target: T1, DPP IV (Felis catus, UniProt Q9N2I7); experiment: Exploratory multiple dose PK/PD (1.0/3.0/9.0 mg/animal, 14 days) in cats: DPP IV activity; format: in vivo, cat; settings: once daily oral 14 days, read-out: DPP IV activity in cat plasma; for response vs control in vivo at 1 mg/animal: head 1 mg/animal (title 1.0 mg/animal); for response vs control in vivo at 3 mg/animal: head 3 mg/animal (title 3.0 mg/animal); for response vs control in vivo at 9 mg/animal: head 9 mg/animal (title 9.0 mg/animal)
T1 construct: Blood samples for the determination of this compound and DPP IV activity were collected; from tissue; host or cells: plasma of domestic short hair / purpose-bred cats dosed orally
T1 sequence (Q9N2I7 38-765 limits assumed): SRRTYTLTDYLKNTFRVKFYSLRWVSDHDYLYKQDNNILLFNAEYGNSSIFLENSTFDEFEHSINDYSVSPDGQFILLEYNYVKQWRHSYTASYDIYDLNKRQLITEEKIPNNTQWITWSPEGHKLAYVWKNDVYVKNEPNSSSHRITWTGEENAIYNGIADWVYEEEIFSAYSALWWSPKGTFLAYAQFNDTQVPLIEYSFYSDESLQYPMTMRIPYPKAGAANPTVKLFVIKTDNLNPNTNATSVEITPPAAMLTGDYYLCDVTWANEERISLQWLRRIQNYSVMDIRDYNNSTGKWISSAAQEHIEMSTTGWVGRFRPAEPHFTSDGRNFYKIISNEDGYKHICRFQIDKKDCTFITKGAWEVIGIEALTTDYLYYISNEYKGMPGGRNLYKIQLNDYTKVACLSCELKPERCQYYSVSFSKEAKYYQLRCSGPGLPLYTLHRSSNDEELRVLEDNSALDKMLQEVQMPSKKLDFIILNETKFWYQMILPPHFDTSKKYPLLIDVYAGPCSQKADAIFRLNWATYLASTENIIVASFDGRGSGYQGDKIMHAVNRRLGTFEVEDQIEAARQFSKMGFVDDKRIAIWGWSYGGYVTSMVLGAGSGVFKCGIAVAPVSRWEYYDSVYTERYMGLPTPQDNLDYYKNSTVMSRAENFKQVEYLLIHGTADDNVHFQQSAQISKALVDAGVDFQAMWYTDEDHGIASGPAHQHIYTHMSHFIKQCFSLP
Protocol: The aim of this study was to investigate the PK/PD effects of 1-[(3-cyano-pyridin-2-yl)methyl]-3-methyl-7-(2-butyn-1-yl)-8-[3-(R)-amino-piperidin-1-yl]-xanthine in cats following repeated oral administration of 0, 1, 3 and 9 mg/animal over 14 days corresponding to a dose of 0, 0.25, 0.75 and 2.25 mg/kg body weight for a cat weighing 4 kg. (Dosages were based on the free base: 1 mg 1-[(3-cyano-pyridin-2-yl)methyl]-3-methyl-7-(2-butyn-1-yl)-8-[3-(R)-amino-piperidin-1-yl]-xanthine monohydrochloride corresponds to 0.923 mg 1-[(3-cyano-pyridin-2-yl)methyl]-3-methyl-7-(2-butyn-1-yl)-8-[3-(R)-amino-piperidin-1-yl]-xanthine free base).
For this purpose, twelve clinically healthy male adult domestic short hair cats with a body weight range of 3.5-4.8 kg were used. The animals were randomly allocated to 4 groups, 3 animals per group. All animals were treated once daily orally for 14 days (i.e. on days 0-13). The test article was administered via capsules at doses of 1 (group II), 3 (group III) or 9 (group IV) mg of the monohydrochloride compound per animal; group I received placebo serving as controls. Blood samples for PK and PD (DPP IV activity) investigations were drawn at 0 h (i.e. prior to the 1st treatment), 0.5, 1, 2, 4, 8, 12 and 24 h after the 1st treatment as well as 24 h after the 3rd, 5th, 7th, 9th, 11th and 13th treatment and 0.5, 1, 2, 4, 8, 12 and 24 h after the 14th treatment.

## CC#CCn1c(N2CCC[C@@H](N)C2)nc2c1c(=O)n(Cc1ncccc1C#N)c(=O)n2C [1-[(3-cyano-pyridin-2-yl)methyl]-3-methyl-7-(2-butyn-1-yl)-8-[3-(R)-amino-piperidin-1-yl]-xanthine monohydrochloride]
[1]
  GLP-1 levels vs. control group: elevated vs. the control group at all time points
  Glucose AUC 0-90 min, Change versus control, Mean Diff. %: −34.4%
  Glucose AUC 0-90 min, Mean: 177.00 mM·min
  Glucose AUC 0-90 min, Median: 165.00 mM·min
  peak plasma insulin levels compared to vehicle treatment: further elevations in peak plasma insulin levels
  reduction of area under the glucose excursion curve: 34.4%
  rise of GLP-1 levels vs. baseline after the glucose stimulus: 93%
[1]; 30 min
  Glucose, Change versus baseline, Mean Diff. %: 71.7%
  Glucose, Change versus control, Mean Diff. %: −29.0%
  Glucose, Mean: 7.90 mM
  Glucose, Median: 8.00 mM
[1]; 60 min
  Glucose, Change versus baseline, Mean Diff. %: 39.1%
  Glucose, Change versus control, Mean Diff. %: −23.0%
  Glucose, Mean: 6.40 mM
  Glucose, Median: 6.30 mM
[1]; 90 min
  Glucose, Change versus baseline, Mean Diff. %: 34.8%
  Glucose, Change versus control, Mean Diff. %: −2.1%
  Glucose, Mean: 6.20 mM
  Glucose, Median: 6.30 mM
[1]; 120 min
  Glucose, Change versus baseline, Mean Diff. %: 31.3%
  Glucose, Change versus control, Mean Diff. %: 5.7%
  Glucose, Mean: 6.04 mM
  Glucose, Median: 5.70 mM
[1]; 180 min
  Glucose, Change versus baseline, Mean Diff. %: 29.6%
  Glucose, Change versus control, Mean Diff. %: 13.2%
  Glucose, Mean: 5.96 mM
  Glucose, Median: 6.10 mM
[1]; Pre-load
  Glucose, Change versus control, Mean Diff. %: −15.6%
  Glucose, Mean: 4.60 mM
  Glucose, Median: 4.40 mM
DPP IV; 0.5 h, 0.5 h
  response vs control in vivo at 1 mg/animal: 31.3%
  response vs control in vivo at 3 mg/animal: 16%
  response vs control in vivo at 9 mg/animal: 8%
DPP IV; 1 h, 1 h
  response vs control in vivo at 1 mg/animal: 8.7%
  response vs control in vivo at 3 mg/animal: 10.3%
  response vs control in vivo at 9 mg/animal: 7.3%
DPP IV; 2 h, 2 h
  response vs control in vivo at 1 mg/animal: 9.7%
  response vs control in vivo at 3 mg/animal: 8%
  response vs control in vivo at 9 mg/animal: 7%
DPP IV; 4 h, 4 h
  response vs control in vivo at 1 mg/animal: 11.7%
  response vs control in vivo at 3 mg/animal: 8%
  response vs control in vivo at 9 mg/animal: 8%
DPP IV; 8 h, 8 h
  response vs control in vivo at 1 mg/animal: 17%
  response vs control in vivo at 3 mg/animal: 11.3%
  response vs control in vivo at 9 mg/animal: 9.3%
DPP IV; 12 h, 12 h
  response vs control in vivo at 1 mg/animal: 28%
  response vs control in vivo at 3 mg/animal: 14%
  response vs control in vivo at 9 mg/animal: 10.7%
DPP IV; 24 h, 24 h
  response vs control in vivo at 1 mg/animal: 57.7%
  response vs control in vivo at 3 mg/animal: 31.7%
  response vs control in vivo at 9 mg/animal: 18%
